What all share (assay type): biochemical
One assay addresses T1, MMP-1 (Homo sapiens, UniProt P03956).
T1 construct: purchased Calbiochem
T1 sequence (P03956 100-469): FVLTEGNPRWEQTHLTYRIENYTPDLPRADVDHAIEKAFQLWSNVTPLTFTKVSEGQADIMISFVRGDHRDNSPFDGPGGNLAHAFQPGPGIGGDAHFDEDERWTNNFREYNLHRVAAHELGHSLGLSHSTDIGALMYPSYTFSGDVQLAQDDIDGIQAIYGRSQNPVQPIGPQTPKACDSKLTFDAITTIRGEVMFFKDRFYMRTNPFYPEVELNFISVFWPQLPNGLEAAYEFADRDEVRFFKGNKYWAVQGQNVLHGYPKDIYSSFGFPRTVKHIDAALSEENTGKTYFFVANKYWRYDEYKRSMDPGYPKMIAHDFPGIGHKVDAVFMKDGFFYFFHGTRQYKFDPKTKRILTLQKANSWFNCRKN
In words: In vitro fluorometric inhibition assay of MMPs: MMP-1. Particulars: Table I. The method, then: (§1) Analysis of the In Vitro Inhibition Activity of Zinc Metalloproteinases: In Vitro Inhibition of MMMPs
(§2) The human recombinant Progelatinase A (pro-MMP-2), B (pro-MMP-9), MMP-14cd and MMP-16cd, were provided by Prof. Gillian Murphy (Oncology Department, Cambridge University, UK); pro-MMP-1, pro-MMP-3, pro-MMP-7, pro-MMP-8, pro-MMP-13 and pro-MMP-14 were bought from Calbiochem. The proenzymes were activated immediately before the use with p-aminophenylmercuric acetate (APMA 2 mM for 1 h at 37° C. for MMP-1, MMP-2 and MMP-8, 1 mM for 1 h at 37° C. for MMP-9 and MMP-7, 1 mM for 30 min at 37° C. for MMP-13). Pro-MMP-14 and pro-MMP-3 were activated with trypsin 5 μg/ml for 15 min at 37° C. followed the soybean trypsin inhibitor (SBTI) 23 μg/ml for pro-MMP-14 and 62 μg/ml for pro-MMP-3. The catalytic domains of MMP-14 and MMP-16 were utilized without activation.
(§3) For the assay measurements, the stock solutions of the inhibitor (DMSO, 100 mM) were further diluted up to 7 different concentrations (0.01 nM-300 μM) for each MMP, in the buffer for the fluorometric assay (FAB: Tris 50 mM, pH=7.5, NaCl 150 mM, CaCl2 10 mM, Brij 35 0.05% and DMSO 1%). The solutions of activated enzyme (final concentrations 2.9 nM for MMP-2, 2.7 nM for MMP-9, 2.4 nM for MMP-7, 1 nM for MMP-14 and MMP-3, 1.5 nM for MMP-8 and MMP-16cd, 0.84 nM for MMP-14cd, 0.66 nM for MMP-13 and 0.20 nM for MMP-1) and of inhibitor were incubated in the assay buffer for 4 h at 25° C. After the addition of solution of fluorogenic substrate 200 μM Mca-Arg-Pro-Lys-Pro-Val-Glu-Nva-Trp-Arg-Lys(Dnp)-NH2 (Sigma) for MMP-3 and Mca-Lys-Pro-Leu-Gly-Leu-Dpa-Ala-Arg-NH2 (Bachem) for all the other enzymes in DMSO (final concentration 2 μM), the hydrolysis were monitored every 15 sec for 20 min, recording the increase in fluorescence (λex=325 nm, λem=400 nm) with a Molecular Device SpectraMax Gemini XS plates reader. The assays were made in triplicate in a total volume of 200 μl per well on 96 well-plates for microtitolation (Corning, black, NBS). The control wells were without inhibitor.
(§4) The inhibition activity of MMP was expressed in relative fluorescence unit (RFU). The percentage of inhibition was calculated using control reactions without inhibitor.
(§5) IC50 was determined using the formula: Vi/Vo=1/(1+[I]/IC50), wherein Vi is the initial rate of the substrate scission in presence of the inhibitor at the concentration [I] and Vo is the initial rate in the absence of inhibitor. The results were analyzed with the SoftMax Pro software and the GraFit software.

The target of the next assay is T2, MMP-9 (Homo sapiens, UniProt P14780).
T2 construct: gift of Prof; Gillian Murphy (Oncology Department, Cambridge University, UK)
In words: In vitro fluorometric inhibition assay of MMPs: MMP-9. The method, then: as §1
The human recombinant Progelatinase A (pro-MMP-2), B (pro-MMP-9), MMP-14cd and MMP-16cd, were provided by Prof. Gillian Murphy (Oncology Department, Cambridge University, UK); pro-MMP-1, pro-MMP-3, pro-MMP-7, pro-MMP-8, pro-MMP-13 and pro-MMP-14 were bought from Calbiochem. […] Pro-MMP-14 and pro-MMP-3 were activated with trypsin 5 μg/ml for 15 min at 37° C. followed the soybean trypsin inhibitor (SBTI) 23 μg/ml for pro-MMP-14 and 62 μg/ml for pro-MMP-3. The catalytic domains of MMP-14 and MMP-16 were utilized without activation.
as §3, with “The solutions of activated enzyme (final concentrations 2.9 nM for MMP-2, 2.7 nM for MMP-9, 2.4 nM for MMP-7, 1 nM for MMP-14 and MMP-3, 1.5 nM for MMP-8 and MMP-16cd, 0.84 nM for MMP-14cd, 0.66 nM for MMP-13 and 0.20 nM for MMP-1) and of inhibitor were incubated in the assay buffer for 4 h at 25° C.” left out
as §4, §5

For the next assay, the target named is T3, MMP-2 (Homo sapiens, UniProt P08253).
T3 construct: gift of Prof; Gillian Murphy (Oncology Department, Cambridge University, UK)
T3 sequence (P08253 110-660): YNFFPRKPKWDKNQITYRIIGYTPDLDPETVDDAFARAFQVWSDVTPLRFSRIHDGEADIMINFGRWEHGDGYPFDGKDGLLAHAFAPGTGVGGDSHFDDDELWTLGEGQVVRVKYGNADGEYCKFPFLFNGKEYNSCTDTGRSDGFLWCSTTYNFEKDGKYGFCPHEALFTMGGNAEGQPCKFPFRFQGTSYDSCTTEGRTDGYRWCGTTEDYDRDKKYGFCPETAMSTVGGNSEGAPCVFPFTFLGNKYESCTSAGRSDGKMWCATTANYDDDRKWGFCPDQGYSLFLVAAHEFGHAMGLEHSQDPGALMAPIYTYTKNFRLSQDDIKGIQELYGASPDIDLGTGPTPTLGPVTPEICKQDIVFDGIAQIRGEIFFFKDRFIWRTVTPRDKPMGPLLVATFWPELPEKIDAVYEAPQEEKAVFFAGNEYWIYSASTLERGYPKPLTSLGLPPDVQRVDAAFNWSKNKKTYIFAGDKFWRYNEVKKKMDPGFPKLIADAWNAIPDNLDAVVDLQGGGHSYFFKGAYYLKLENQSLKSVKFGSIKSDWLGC
In words: In vitro fluorometric inhibition assay of MMPs: MMP-2. The method, then: as §1, §2, §3, §4, §5

The target of the next assay is T4, TACE (ADAM17) (Homo sapiens, UniProt P78536).
T4 construct: purchased CalBiochem
In words: Inhibition of ADAMs: activity on TACE (ADAM17), fluorometric assay. The method, then:
Inhibition of ADAMS: Activity on TACE (ADAM17) Method 1: (only TACE)
The human recombinant TACE, from CalBiochem, was dissolved in FAB buffer (Tris 50 mM, pH=7.5, NaCl 150 mM, CaCl2 10 mM, Brij 35 0.05% and DMSO 1%) at the concentration of 200 μg/mL (2.85 μM) as stock solution. For the assay measurements, the stock solutions of the inhibitor (DMSO, 100 mM) were further diluted up to seven different concentrations (0.01 nM-300 μM) in FAB buffer. A solution of the enzyme (final concentration 3 nM) and the solutions of the inhibitors at different concentrations were incubated in FAB for 20 minutes at 25° C. After the addition of a 200 μM solution of the substrate Mca-Lys-Pro-Leu-Gly-Leu-Dap(Dnp)-Ala-Arg-NH2 (Bachem) in DMSO (final concentration 2 μM), the hydrolysis was monitored for 20 min, recording the increase in fluorescence (λex=325 nm, λem=400 nm) using a Molecular Device SpectraMax Gemini XS plates reader. The assays were made in triplicate in a total volume of 200 μl per well, on 96 well microplates (Corning, black, NBS). The inhibition activity of TACE was expressed in relative fluorescent units (RFU). The percentage of inhibition was calculated based in respect to the blanks control without inhibitor. The IC50 was determined following the equation: Vi/Vo=1/(1+[I]/IC50), where Vi is the initial rate of the hydrolysis of the substrate in the presence of the inhibitor at the concentration [I] and Vo is the initial rate in the absence of inhibitor. The results were analysed using the software SoftMax Pro and GraFit.

T4 sequence (P78536 215-671 limits assumed): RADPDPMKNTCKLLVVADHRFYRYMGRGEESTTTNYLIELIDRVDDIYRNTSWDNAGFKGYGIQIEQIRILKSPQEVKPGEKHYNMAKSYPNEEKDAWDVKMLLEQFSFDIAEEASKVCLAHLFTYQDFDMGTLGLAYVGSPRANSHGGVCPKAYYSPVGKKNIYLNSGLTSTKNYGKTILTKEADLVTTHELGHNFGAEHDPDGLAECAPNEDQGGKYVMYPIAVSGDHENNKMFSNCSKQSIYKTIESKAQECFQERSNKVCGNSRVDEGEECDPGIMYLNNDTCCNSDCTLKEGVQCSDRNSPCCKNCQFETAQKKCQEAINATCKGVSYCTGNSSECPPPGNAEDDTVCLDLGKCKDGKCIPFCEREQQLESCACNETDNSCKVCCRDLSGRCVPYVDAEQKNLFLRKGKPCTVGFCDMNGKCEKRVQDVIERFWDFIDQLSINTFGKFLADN
T2 sequence (P14780 107-707 limits assumed): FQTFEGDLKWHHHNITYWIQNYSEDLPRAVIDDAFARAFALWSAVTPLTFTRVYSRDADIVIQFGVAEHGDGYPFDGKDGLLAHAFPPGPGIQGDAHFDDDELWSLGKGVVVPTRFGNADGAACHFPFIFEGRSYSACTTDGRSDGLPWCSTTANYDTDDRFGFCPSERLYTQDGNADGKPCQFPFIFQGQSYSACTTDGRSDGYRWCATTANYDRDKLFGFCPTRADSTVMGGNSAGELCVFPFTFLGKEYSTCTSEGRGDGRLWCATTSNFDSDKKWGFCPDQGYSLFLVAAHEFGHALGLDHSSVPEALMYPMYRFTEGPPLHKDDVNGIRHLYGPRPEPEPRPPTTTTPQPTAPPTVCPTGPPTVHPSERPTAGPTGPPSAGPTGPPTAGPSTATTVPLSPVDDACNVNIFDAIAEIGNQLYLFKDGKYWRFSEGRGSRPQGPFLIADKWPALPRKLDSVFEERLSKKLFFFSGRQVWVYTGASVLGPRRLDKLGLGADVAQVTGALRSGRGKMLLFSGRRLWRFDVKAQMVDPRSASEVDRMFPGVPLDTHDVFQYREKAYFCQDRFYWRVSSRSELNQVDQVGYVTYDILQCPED

Broadly, the IC50 is the concentration needed to halve the response being measured. Low readings indicate greater potency in that assay, high ones weaker potency in that assay. For `O=C(O)Cc1ccccc1Sc1ccc(-c2ccccc2)cc1`, the IC50 against MMP-1 (cells without (*)) is 334 ± 5.7 µM; on MMP-9 (Table I, cells without (*)) it was 6.7 ± 0.3 µM; on MMP-2 (Table I, cells without (*)), 0.33 ± 0.026 µM.
As for `O=C(O)CC(C(=O)O)c1ccccc1Sc1ccc(-c2ccccc2)cc1` (stereo not shown), the IC50 against MMP-1 (cells without (*)) came out at 189 ± 28 µM; on MMP-9 (Table I, cells without (*)), 95 ± 8.7 µM; against MMP-2 (Table I, cells without (*)), 11 ± 1.1 µM.
`O=C(Cc1ccccc1Sc1ccc(-c2ccccc2)cc1)NO` [Compound 21a]: the 50% inhibitory concentration (IC50) was found to be 13.4 ± 1.93 µM on TACE (ADAM17) (Table IV); 171 ± 5 µM against MMP-1 (cells marked (*)); 1.2 ± 0.2 µM against MMP-9 (Table I, cells marked (*)); 0.0411 ± 0.0014 µM at MMP-2 (Table I, cells marked (*)).
Consider `COc1ccc(Sc2ccccc2CC(=O)NO)cc1` [Compound 21b, N-hydroxy-2-(2-(4-methoxyphenylthio)phenyl)acetamide], for which the IC50 stood at 10.2 ± 0.67 µM against TACE (ADAM17) (Table IV) and 6.2 ± 0.3 µM against MMP-2 (Table IV).
With `CC#CCOc1ccc(Sc2ccccc2CC(=O)NO)cc1` [Compound 21c, 2-(2-(4-(but-2-iniloxy)phenylthio)phenyl)-N-hydroxyacetamide], the values for the IC50 at TACE (ADAM17) (text b547) and at MMP-2 (text b547) were 0.462 ± 0.021 µM and 1.45 ± 0.033 µM, respectively.
Turning to `COc1ccc(-c2ccc(Sc3ccccc3CC(=O)NO)cc2)cc1` [Compound 24, N-hydroxy-2-(2-(4′-methoxybiphenyl-4-ylthio)phenyl)acetamide], the IC50 against TACE (ADAM17) (Table IV) is 46.2 ± 5.34 µM; on MMP-9 (Table I, cells marked (*)), 0.12 ± 0.017 µM; against MMP-9 (Table IV), 0.12 ± 0.017 µM; against MMP-2 (Table I, cells marked (*)), 0.0068 ± 0.00053 µM; against MMP-2 (Table IV), 0.0068 ± 0.00053 µM.

For the origin of these results see patent publication US8093386B2, “Thioaryl substituted inhibitors of zinc proteases and their use” (Bracco Imaging S.p.A, priority 2006, dated 2012).
